In US20090215742A1, “AMIDE […]” (PFIZER, INC., priority 2005, published 2009):

Target: T1, HSP-90 (Homo sapiens, UniProt P07900)
T1 construct: fused on or other part: 6-His tag at the C-terminus
Experiment: HSP-90 SPA (scintillation proximity assay) competition binding assay, displacement of tritiated propyl-Geldanamycin
Settings: for inhibition at 1 µM: read-out: % inhibition @ 1 μM; for inhibition at 10 µM: read-out: % inhibition @ 10 μM
Procedure: Compounds of the present invention were evaluated for potency against HSP-90 using a SPA (scintillation proximity assay) competition binding assay. Briefly, either full length or N-terminal HSP-90 that contains a 6-His tag on its C-terminus binds to copper on Yttrium-silicate scintillant beads via the His-tag. Tritiated propyl-Geldanamycin (pGA), whose structure is shown below, is an analog of a natural inhibitor of HSP-90 called Geldanamycin.
Tritiated pGA, which contains a tritiated propyl-amine group added at the #17 position, binds HSP-90 and brings the isotope into proximity with the beads. […] The beta signal emitted from the isotope excites the scintillant, which creates a measurable signal. As competitive compounds are added to the assay mixture, they compete with bound tritiated pGA at the ATP-binding site on the N-terminal of HSP-90. When a compound displaces the labeled pGA, the signal is reduced (the beta-particles are no longer in proximity with the bead). This reduction in signal is used to quantify the extent to which the inhibitor/compound is competitive with pGA.
Typical reaction solutions contained 30 nM HSP-90 and 200 nM ^3H-pGA in binding buffer (100 mM Hepes, pH 7.5 and 150 mM KCl). […] Inhibitors were added to the HSP-90/^3H-pGA solutions at eleven different concentrations for Ki determinations. […] To determine percent inhibition, the compound was tested at 1 and 10 μM. The final DMSO in the samples was 4%. Copper-Ysi beads (Amersham, #RPNQ0096) that have been diluted in binding buffer were added to each well to give a final concentration of 100 μg/well. The plates were sealed, covered with a foil-covered lid and shaken for 30 minutes at room temperature. The beads were allowed to settle for 30 minutes after which the plates were counted using a Packard TopCount NXT instrument. This procedure has also been adapted for medium throughput using a Beckman Biomek FX. Samples were run in duplicate and on two separate days to assure an accurate value of Ki.
For Ki determinations, the corrected cpm's (actual cpm's minus background) were plotted vs. inhibitor concentration using GraphPad Prism software. […] The IC50 was then used to calculate the Ki by using the Cheng-Prusoff equation: […]
This is normally true when the observed IC50 is […] the HSP-90 concentration. For a tight binding inhibitor, the following equation can be applied: […]
EL and ELo are the radioligand-HSP-90 complexes in the presence and absence of inhibitor, respectively. EL/ELo represents the fractional signal in the presence of inhibitor. Io, Eo, and Lo are the inhibitor, HSP-90, and radioligand concentrations, respectively.

Row | Compound | inhibition at 1 µM | inhibition at 10 µM
1 | CCc1nc(COCC2CCN(C(=O)c3ccc(O)cc3O)C2)no1 (centres unmarked) [Example 58, 4-[(3-{[(5-ethyl-1,2,4-oxadiazol-3-yl)methoxy]methyl}pyrrolidin-1-yl)carbonyl]benzene 1,3-diol] | 29.3% | 72.5%
2 | O=C(c1ccc(O)cc1O)N1CCC(Cc2ccc(Cl)cc2)CC1 [Example 43, 4-{[4-(4-chlorobenzyl)piperidin-1-yl]carbonyl}benzene-1,3-diol] | 35.9% | 73.6%
3 | O=C(c1ccc(O)cc1O)N1CCOC(COc2ccccc2)C1 (centres unmarked) [Example 112, 4-{[2-(phenoxymethyl)morpholin-4-yl]carbonyl}benzene-1,3-diol] | 48.1% | 80.5%
4 | O=C(c1ccc(CO)cc1)N1Cc2ccccc2C1 [Example 184, [4-(1,3-dihydro-2H-isoindol-2-ylcarbonyl)phenyl] methanol] |  | 0%
5 | CN(Cc1ccccc1Cl)C(=O)c1ccc(O)cc1O [Example 113, N-(2-chlorobenzyl)-2,4-dihydroxy-N-methylbenzamide] | 53% | 81.9%
6 | O=C(c1ccc(O)cc1O)N1CCOC(COc2cccc(Cl)c2)C1 (centres unmarked) [Example 110, 4-({2-[(3-chlorophenoxy)methyl]morpholin-4-yl}carbonyl)benzene-1,3-diol] | 55.3% | 82.8%
7 | Nc1nccc(-c2ccc(O)c(C(=O)N3Cc4ccccc4C3)c2)n1 [Example 31, 4-(2-aminopyrimidin-4-yl)-2-(1,3-dihydro-2H-isoindol-2-ylcarbonyl)phenol] | 8.1% | 12.9%
8 | O=C(c1ccc(O)cc1O)N1CCC(CCc2cnccn2)CC1 [Example 47, 4-{[4-(2-pyrazin-2-ylethyl)piperidin-1-yl]carbonyl}benzene-1,3-diol] | 43.4% | 80%
9 | CN(C(=O)c1ccc(O)cc1O)[C@H]1CCCC[C@@H]1O [Example 45, 2,4-dihydroxy-N-(2-hydroxycyclohexyl)-N-methylbenzamide] | 9.6% | 38.3%
10 | O=C(c1ccc(O)cc1O)N1CCC(COc2ccc(F)cc2Cl)C1 (centres unmarked) [Example 89, 4-({3-[(2-chloro-4-fluorophenoxy)methyl]pyrrolidin-1-yl}carbonyl)benzene-1,3-diol] | 45.7% | 77.8%
11 | O=C(c1ccc(O)cc1O)N1CCN(c2nc3ccc(Cl)cc3o2)CC1 [Example 125, 4-{[4-(6-chloro-1,3-benzoxazol-2-yl)piperazin-1-yl]carbonyl}benzene-1,3-diol] | 22.4% | 59.8%
12 | Cc1nc2c(s1)CN(C(=O)c1ccc(O)cc1O)CC2 [Example 104, 4-[(2-methyl-6,7-dihydro[1,3]thiazolo[5,4-c]pyridin-5(4H)-yl)carbonyl]benzene-1,3-diol] | 33.9% | 74.3%
13 | CCOC(=O)C1CCCN(C(=O)c2ccc(O)cc2O)C1 (centres unmarked) [Example 52, ethyl 1-(2,4-dihydroxybenzoyl)piperidine-3-carboxylate] | 39.1% | 80.2%
14 | COc1ccc2oc(N3CCN(C(=O)c4ccc(O)cc4O)CC3)nc2c1 [Example 127, 4-{[4-(5-methoxy-1,3-benzoxazol-2-yl)piperazin-1-yl]carbonyl}benzene-1,3-diol] | 21.1% | 60.3%
15 | CN(Cc1ccc(Cl)cc1)C(=O)c1ccc(O)cc1O [Example 106, N-(4-chlorobenzyl)-2,4-dihydroxy-N-methylbenzamide] | 26.9% | 72.4%
16 | COc1ccccc1OC1CCN(C(=O)c2ccc(O)cc2O)CC1 [Example 72, 4-{[4-(2-methoxyphenoxy)piperidin-1-yl]carbonyl}benzene-1,3-diol] | 13.2% | 62.4%
17 | Cc1ccc2c(c1)C=CC1(CCN(C(=O)c3ccc(O)cc3O)CC1)O2 [Example 82, 4-[(6-methyl-1′H-spiro[chromene-2,4′-piperidin]-1′-yl)carbonyl]benzene-1,3-diol] | 62.8% | 85.3%
18 | O=C(c1ccc(O)cc1O)N1CCc2ccccc2C1 [Example 109, 4-(3,4-dihydroisoquinolin-2(1H)-ylcarbonyl)benzene-1,3-diol] | 68% | 87.2%
19 | Cc1ccccc1C1(O)CCN(C(=O)c2ccc(O)cc2O)C1 (centres unmarked) [Example 100, 4-{[3-hydroxy-3-(2-methylphenyl)pyrrolidin-1-yl]carbonyl}benzene-1,3-diol] | 35.9% | 79.1%
20 | COC(=O)C1CCN(C(=O)c2ccc(O)cc2O)C1 (centres unmarked) [Example 94, methyl 1-(2,4-dihydroxybenzoyl)pyrrolidine-3-carboxylate] | 21.1% | 62.1%
21 | O=C(c1ccc(O)cc1O)N1CCCC1c1ccc(Cl)cc1 (centres unmarked) [Example 84, 4-{[2-(4-chlorophenyl)pyrrolidin-1-yl]carbonyl}benzene-1,3-diol] | 76.2% | 89.8%
22 | O=C(c1ccc(O)cc1O)N1CCC(c2ccccc2)C1 (centres unmarked) [Example 93, 4-[(3-phenylpyrrolidin-1-yl)carbonyl]benzene-1,3-diol] | 34.5% | 76.1%
23 | CN(Cc1ccc(F)cc1)C(=O)c1ccc(O)cc1O [Example 105, N-(4-fluorobenzyl)-2,4-dihydroxy-N-methylbenzamide] | 30.2% | 69.3%
24 | Cc1ccc(OCC2CCCN(C(=O)c3ccc(O)cc3O)C2)cn1 (centres unmarked) [Example 60, 4-[(3-{[(6-methylpyridin-3-yl)oxy]methyl}piperidin-1-yl)carbonyl]benzene 1,3-diol] | 77.6% | 88.1%
25 | O=C(c1ccc(O)cc1O)N1CCCCC1CCC1CCCC1 (centres unmarked) [Example 44, 4-{[2-(2-cyclopentylethyl)piperidin-1-yl]carbonyl}benzene-1,3-diol] | 82.4% | 90.5%
26 | O=C(c1ccc(O)cc1O)N1CCC2(C=Cc3cc(Cl)ccc3O2)CC1 [Example 79, 4-[(6-chloro-1′H-spiro[chromene-2,4′-piperidin]-1′-yl)carbonyl]benzene-1,3-diol] | 57.7% | 85.1%
27 | Cc1ccc(O)c(C(=O)N2Cc3ccccc3C2)c1 [Example 30, 2-(1,3-dihydro-2H-isoindol-2-ylcarbonyl)-4-methylphenyl] | 5.8% | 61.2%
28 | COc1ccccc1-c1nnc(CN(C)C(=O)c2ccc(O)cc2O)o1 [Example 118, 2,4-Dihydroxy-N-{[5-(2-methoxyphenyl)-1,3,4-oxadiazol-2-yl]methyl}-N-methylbenzamide] | 15.4% | 57%
29 | O=C(c1ccc(Cl)cc1O)N1Cc2ccccc2C1 [Example 26, 5-chloro-2-(1,3-dihydro-2H-isoindol-2-ylcarbonyl)phenol] | 1% | 39%
30 | O=C(c1cc(-c2ccc(F)cc2F)ccc1O)N1Cc2ccccc2C1 [Example 28, 3-(1,3-dihydro-2H-isoindol-2-ylcarbonyl)-2′,4′-difluorobiphenyl-4-ol] | 50.8% | 76.2%
